Read-outs that look alike come from different tables or passages of the source. A value given as a limit tells only on which side of the number the result lay.

Series [1] in a line: Clearance of compound from plasma after IP dosing in mice. The series is classed as in vivo, mouse.
The target of the next series is human NR1/NR2A (Homo sapiens (Human), UniProt Q05586+Q12879). Put plainly: NR2A antagonist activity: calcium influx (Fluo-4) assay in HEK293 cells. The format is cell-based. Particulars: Table 1.1B; read-out: NR2A IC50. The method, then: Activation of the NR2A or NR2B subtype of NMDA receptor with glutamate as an agonist and glycine co-agonist on these cells results in calcium influx, which can be monitored with fluorescent indicator Fluo-4.
For experiments, the cells were seeded onto poly-D-lysine-coated 96-well black plates with clear bottom (Corning) at a density of ˜50,000 cells/well. After overnight culture, the growth medium was removed from the wells and the cells were incubated at 37° C. for 60 minutes in Hanks buffer containing 4 μM fluo-4-AM (Invitrogen) and 0.1% bovine serum albumin (BSA). After dye-loading, the cells were washed three times with Hanks buffer and incubated for 10 minutes at room temperature with various concentrations of test compounds prepared in Hanks buffer with 0.1% BSA. The cell plates were placed onto an FDSS Cell fluorescence reader (Hamamatsu). After 20 seconds of reading background fluorescence, agonist glutamate at final 100 µM and co-agonist glycine at final 50 μM were added to the cells to activate the receptor, and the resulting fluorescence changes were recorded and quantified. Based on the changes in fluorescence intensity, the pharmacological effect of test compounds was analyzed and the IC50 values derived from a non-linear least squares fitting of the concentration-dependent response to a standard logistic equation using Prism (Graphpad Software, Inc.): Amplitude=Max Amplitude/(1+(IC50/[antagonist])^n).

In a further series the target is human NR1/NR2B (Homo sapiens (Human), UniProt Q05586+Q13224). The experiment in a line: NR2B antagonist activity: calcium influx (Fluo-4) assay in HEK293 cells. The series is classed as cell-based. Particulars: read-out: NR2B IC50. In short, it runs like this: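 HEK293 cells expressing NR1/NR2A or NR1/NR2B, loaded with fluo-4-AM, preincubated 10 min at room temperature with compound in Hanks buffer/0.1% BSA.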

The target in series [2] is native rat brain NR2B receptors (Rattus norvegicus (Rat), UniProt P35439+Q00960). The experiment in a line: NR2B radioligand binding assay in rat brain using [3H] (E)-N1-(2-methoxybenzyl)-cinnamidine. To be noted: rat brain NR2B receptors; mean of replicates; read-out: Arithmetic Mean Ki.
native rat brain NR2B receptors, sequence (Q00960 27-1482, other chains not shown): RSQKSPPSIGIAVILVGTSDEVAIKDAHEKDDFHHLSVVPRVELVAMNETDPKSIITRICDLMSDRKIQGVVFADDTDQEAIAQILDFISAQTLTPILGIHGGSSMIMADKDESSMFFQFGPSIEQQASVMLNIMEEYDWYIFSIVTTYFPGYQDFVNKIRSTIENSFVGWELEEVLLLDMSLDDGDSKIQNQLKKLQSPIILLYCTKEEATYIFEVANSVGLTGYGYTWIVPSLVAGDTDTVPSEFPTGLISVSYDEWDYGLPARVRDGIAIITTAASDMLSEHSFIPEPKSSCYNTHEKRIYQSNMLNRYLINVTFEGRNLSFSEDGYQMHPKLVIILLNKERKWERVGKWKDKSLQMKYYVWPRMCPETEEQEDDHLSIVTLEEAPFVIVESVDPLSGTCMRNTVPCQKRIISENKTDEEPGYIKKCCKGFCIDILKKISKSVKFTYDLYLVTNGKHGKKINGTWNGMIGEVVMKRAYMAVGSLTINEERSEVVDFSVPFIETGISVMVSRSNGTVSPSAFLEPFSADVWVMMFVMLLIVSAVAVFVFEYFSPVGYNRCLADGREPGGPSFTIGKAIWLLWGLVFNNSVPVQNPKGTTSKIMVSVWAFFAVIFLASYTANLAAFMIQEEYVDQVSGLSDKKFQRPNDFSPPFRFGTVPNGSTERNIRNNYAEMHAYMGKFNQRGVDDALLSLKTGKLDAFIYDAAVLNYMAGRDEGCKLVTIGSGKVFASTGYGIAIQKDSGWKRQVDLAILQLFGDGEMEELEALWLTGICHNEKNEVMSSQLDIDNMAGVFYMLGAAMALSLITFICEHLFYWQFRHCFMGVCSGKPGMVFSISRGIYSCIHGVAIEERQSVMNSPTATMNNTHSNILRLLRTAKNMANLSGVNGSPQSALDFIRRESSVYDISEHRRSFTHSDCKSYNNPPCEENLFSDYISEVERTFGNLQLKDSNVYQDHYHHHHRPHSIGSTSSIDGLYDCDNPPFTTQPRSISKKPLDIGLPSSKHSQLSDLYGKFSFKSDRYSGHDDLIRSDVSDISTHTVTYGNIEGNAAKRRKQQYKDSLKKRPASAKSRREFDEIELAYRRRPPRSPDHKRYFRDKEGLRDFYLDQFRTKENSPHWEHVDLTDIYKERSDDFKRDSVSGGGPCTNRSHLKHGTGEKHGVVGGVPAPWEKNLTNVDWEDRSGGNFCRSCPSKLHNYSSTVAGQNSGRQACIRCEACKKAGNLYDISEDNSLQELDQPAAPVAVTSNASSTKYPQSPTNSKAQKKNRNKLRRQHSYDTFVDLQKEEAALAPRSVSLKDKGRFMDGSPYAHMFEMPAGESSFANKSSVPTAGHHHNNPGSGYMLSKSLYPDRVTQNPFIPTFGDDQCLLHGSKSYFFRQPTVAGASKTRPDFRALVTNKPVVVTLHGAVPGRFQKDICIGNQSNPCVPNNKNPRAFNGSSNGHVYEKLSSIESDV

human NR1/NR2B, sequence (Q13224 27-1484, other chains not shown): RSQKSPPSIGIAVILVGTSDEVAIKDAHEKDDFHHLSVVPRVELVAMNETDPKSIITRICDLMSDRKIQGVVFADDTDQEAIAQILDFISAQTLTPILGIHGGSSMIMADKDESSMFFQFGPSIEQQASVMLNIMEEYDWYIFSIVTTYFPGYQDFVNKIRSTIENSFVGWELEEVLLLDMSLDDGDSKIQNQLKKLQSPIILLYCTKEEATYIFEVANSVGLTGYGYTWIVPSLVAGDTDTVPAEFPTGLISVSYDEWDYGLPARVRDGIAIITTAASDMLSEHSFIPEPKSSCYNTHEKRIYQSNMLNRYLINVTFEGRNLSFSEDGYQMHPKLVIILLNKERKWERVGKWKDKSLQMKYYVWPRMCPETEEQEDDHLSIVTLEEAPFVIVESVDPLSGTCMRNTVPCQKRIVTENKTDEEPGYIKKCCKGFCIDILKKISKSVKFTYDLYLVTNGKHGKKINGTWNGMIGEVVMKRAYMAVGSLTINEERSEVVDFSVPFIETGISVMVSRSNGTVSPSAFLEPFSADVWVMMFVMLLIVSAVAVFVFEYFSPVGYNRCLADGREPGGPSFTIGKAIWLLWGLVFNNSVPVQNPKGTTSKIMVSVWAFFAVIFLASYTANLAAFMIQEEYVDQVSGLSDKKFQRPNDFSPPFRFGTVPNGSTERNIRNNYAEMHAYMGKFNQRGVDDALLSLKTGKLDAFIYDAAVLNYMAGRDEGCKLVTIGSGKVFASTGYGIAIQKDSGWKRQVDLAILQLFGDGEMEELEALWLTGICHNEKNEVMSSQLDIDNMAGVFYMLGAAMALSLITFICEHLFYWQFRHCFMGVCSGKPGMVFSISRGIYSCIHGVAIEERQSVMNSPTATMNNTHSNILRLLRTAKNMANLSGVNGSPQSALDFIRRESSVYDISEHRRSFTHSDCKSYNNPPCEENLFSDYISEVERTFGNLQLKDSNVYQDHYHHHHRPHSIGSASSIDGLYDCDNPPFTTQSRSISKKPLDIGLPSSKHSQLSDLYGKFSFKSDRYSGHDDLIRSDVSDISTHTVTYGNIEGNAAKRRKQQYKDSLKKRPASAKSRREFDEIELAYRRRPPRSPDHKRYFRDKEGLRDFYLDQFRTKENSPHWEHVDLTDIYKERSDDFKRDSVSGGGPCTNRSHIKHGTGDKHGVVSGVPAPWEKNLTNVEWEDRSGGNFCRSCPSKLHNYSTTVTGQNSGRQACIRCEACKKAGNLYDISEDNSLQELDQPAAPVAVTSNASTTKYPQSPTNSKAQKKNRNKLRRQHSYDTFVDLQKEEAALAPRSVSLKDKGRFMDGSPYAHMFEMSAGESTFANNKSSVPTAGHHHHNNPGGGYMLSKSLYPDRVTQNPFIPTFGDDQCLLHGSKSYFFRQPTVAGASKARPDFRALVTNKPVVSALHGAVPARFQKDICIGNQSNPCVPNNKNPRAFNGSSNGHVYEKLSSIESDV
human NR1/NR2A, sequence (Q12879 23-1464, other chains not shown): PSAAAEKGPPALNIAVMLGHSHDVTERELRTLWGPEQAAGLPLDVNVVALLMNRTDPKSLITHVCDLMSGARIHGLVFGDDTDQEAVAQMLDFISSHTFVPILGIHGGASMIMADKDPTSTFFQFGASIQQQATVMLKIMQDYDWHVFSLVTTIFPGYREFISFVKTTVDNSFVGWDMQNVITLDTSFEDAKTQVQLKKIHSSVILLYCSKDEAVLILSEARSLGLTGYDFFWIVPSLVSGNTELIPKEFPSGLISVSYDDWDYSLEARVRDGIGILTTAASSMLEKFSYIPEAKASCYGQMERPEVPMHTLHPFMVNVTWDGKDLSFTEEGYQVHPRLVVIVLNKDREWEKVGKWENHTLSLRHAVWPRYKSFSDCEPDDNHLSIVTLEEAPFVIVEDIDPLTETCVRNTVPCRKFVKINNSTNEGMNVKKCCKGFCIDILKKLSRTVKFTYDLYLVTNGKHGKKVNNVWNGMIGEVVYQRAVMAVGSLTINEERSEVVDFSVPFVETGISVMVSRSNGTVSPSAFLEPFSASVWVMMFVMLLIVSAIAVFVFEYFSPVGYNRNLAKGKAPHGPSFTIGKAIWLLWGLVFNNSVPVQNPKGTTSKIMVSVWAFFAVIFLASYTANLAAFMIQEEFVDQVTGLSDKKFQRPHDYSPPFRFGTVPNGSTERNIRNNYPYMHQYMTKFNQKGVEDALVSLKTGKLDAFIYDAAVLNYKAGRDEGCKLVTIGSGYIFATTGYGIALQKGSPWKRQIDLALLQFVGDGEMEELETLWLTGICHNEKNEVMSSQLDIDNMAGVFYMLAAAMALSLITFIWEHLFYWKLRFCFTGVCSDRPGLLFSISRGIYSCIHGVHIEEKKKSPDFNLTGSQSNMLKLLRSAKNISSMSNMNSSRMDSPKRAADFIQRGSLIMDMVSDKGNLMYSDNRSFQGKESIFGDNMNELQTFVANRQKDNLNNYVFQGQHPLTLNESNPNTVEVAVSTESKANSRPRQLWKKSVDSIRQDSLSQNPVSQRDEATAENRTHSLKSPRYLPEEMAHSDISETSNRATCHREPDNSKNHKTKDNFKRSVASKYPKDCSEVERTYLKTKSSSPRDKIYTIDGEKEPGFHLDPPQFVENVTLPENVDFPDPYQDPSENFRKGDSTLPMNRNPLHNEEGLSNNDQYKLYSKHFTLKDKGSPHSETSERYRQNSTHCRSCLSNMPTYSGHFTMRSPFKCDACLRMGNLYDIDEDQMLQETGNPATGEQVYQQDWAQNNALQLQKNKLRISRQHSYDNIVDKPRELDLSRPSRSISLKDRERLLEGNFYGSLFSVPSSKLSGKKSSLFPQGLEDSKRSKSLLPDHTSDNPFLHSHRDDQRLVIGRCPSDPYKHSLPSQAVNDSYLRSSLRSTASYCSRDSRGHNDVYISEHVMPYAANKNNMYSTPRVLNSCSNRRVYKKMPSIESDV

Turning to `FC(F)c1ccc(C(F)(F)CN2CCC(Nc3ncnc4[nH]ccc34)CC2)cc1` [C-179^A′], in series [1], the “time to clearance of the compound from plasma” value is recorded as “about 8 hours”.
As to `Cc1ccc(COC(=O)N2CC[C@H](CNc3nccn4cnnc34)C(F)(F)C2)cc1` [E1-1.2^B′], the IC50 at human NR1/NR2A is over 10 µM; on human NR1/NR2B (Table 1.1B), 0.0207 µM; on human NR1/NR2B (Table 1.3B) it was 0.0207 µM; at human NR1/NR2B (Table 1.4B) it was 0.0207 µM. Besides, in series [2], the inhibition constant Ki turned out to be 0.00481 µM.
Turning to `Cc1ccc(COC(=O)N2CC[C@H](CNc3cnc(C)cn3)C(F)(F)C2)cc1` [E1-21.26^B′], the IC50 on human NR1/NR2B (Table 1.1B), at human NR1/NR2B (Table 1.3B) and at human NR1/NR2B (Table 1.4B) was 0.029 µM in each case. In addition, in series [1], the “time to clearance of the compound from plasma” value is listed as “about 8 hours”.

By IC50 is commonly meant the concentration that gives 50% inhibition. One may read the Ki as the dissociation constant of the complex between target and ligand, obtained from inhibition or displacement.
